Test results from patent US20180008637A1, “NATURAL KILLER CELLS AND USES THEREOF” (ANTHROGENESIS CORPORATION, priority 2014, published 2018).

Tested on: CD34+ cells
Assay: Three-stage method with SR-1 or CH223191 in Stage 1 and Stage 2 media: NK cell expansion, purity, cytotoxicity
Assay type: cell-based
Conditions: for effects on fold expansion, cell purity (CD56+CD3−), and cytotoxicity of K562 cells at a 10:1 (E:T) ratio: SR-1 and CH223191 compared at 10 μM and 1 μM
Procedure: CD34^+ cells are cultured in the following medium formulations for the indicated number of days, and aliquots of cells are taken for assessment of cell count, cell viability, characterization of natural killer cell differentiation and functional evaluation.
Stage 1 medium: 90% Stem Cell Growth Medium (SCGM) (CellGro®), 10% Human Serum-AB, supplemented with 4.5 U/mL low molecular weight heparin (LMWH), 25 ng/mL recombinant human thrombopoietin (TPO), 25 ng/mL recombinant human Flt3L, 27 ng/mL recombinant human stem cell factor (SCF), 25 ng/mL recombinant human IL-7, 0.05 ng/mL recombinant human IL-6 (500-fold), 0.25 ng/mL recombinant human granulocyte colony-stimulating factor (G-CSF) (50-fold), 0.01 ng/mL recombinant human granulocyte-macrophage colony-stimulating factor (GM-CSF) (500-fold), 0.10% gentamicin, and 1 to 10 μm StemRegenin-1 (SR-1).
Stage 2 medium: 90% SCGM, 10% Human Serum-AB, supplemented with 4.5 U/mL low molecular weight heparin (LMWH), 25 ng/mL recombinant human Flt3L, 27 ng/mL recombinant human SCF, 25 ng/mL recombinant human IL-7, 20 ng/mL recombinant human IL-15, 0.05 ng/mL recombinant human IL-6 (500-fold), 0.25 ng/mL recombinant human G-CSF (50-fold), 0.01 ng/mL recombinant human GM-CSF (500-fold), 0.10% gentamicin, and 1 to 10 μm SR1.
Stemregenin-1 (SR-1) was evaluated as a component of Stage 1 and Stage 2 media using the three-stage method outlined in Example 1, above, at concentrations of 1 μM, 10 μM, and 30 μM. The same concentrations of CH223191 in the three-stage method were also evaluated.

Row | Structure (SMILES) | effects on fold expansion, cell purity (CD56+CD3−), and cytotoxicity of K562 cells at a 10:1 (E:T) ratio | cytotoxicity of the NK cells produced (SR-1 at 10 μM versus 1 μM and 30 μM in Stage 1 and Stage 2 media)
1 | Cc1ccccc1/N=N/c1ccc(NC(=O)c2ccnn2C)c(C)c1 [CH223191, 1-methyl-N-(2-methyl-4-(2-(2-methylphenyl)diazenyl)phenyl)-1H-pyrazole-5-carboxamide] | Comparable effects | –
2 | CC(C)n1cnc2c(NCCc3ccc(O)cc3)nc(-c3csc4ccccc34)nc21 [SR-1, 4-(2-(2-(benzo[b]thien-3-yl)-9-isopropyl-9H-purin-6-ylamino)ethyl)phenol] | Comparable effects | higher cytotoxicity than the other two concentrations tested
